Assay results reported in PubChem BioAssay (NCI).
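The compound was tested at five concentrations on cells cultured in 96-well plates, with a 48-hour exposure period. TGI: total growth inhibition.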

Key:
Experiment in all cases: growth of human tumour cells (NCI), 48 h
[1] = tested on: 786-0 renal
[2] = tested on: SF-539 CNS
[3] = tested on: SK-MEL-28 melanoma
[4] = tested on: OVCAR-4 ovarian
[5] = tested on: HCT-15 colon
[6] = tested on: IGROV1 ovarian
[7] = tested on: M19-MEL melanoma
[8] = tested on: UACC-257 melanoma
[9] = tested on: SNB-19 CNS
[10] = tested on: LXFL 529 NSCLC
[11] = tested on: HT29 colon
[12] = tested on: KM20L2 colon
[13] = tested on: MOLT-4 leukemia
[14] = tested on: UO-31 renal
[15] = tested on: HL-60(TB) leukemia
[16] = tested on: MALME-3M melanoma
[17] = tested on: SF-295 CNS
[18] = tested on: HOP-62 NSCLC
[19] = tested on: NCI-H23 lung
[20] = tested on: OVCAR-5 ovarian
[21] = tested on: RPMI-8226 leukemia
[22] = tested on: SNB-75 CNS
[23] = tested on: NCI-H226 lung
[24] = tested on: KM12 colon
[25] = tested on: HCC-2998 colon
[26] = tested on: SK-MEL-2 melanoma
[27] = tested on: NCI-H522 lung
[28] = tested on: OVCAR-3 ovarian
[29] = tested on: UACC-62 melanoma
[30] = tested on: K-562 leukemia
[31] = tested on: U251 CNS
[32] = tested on: M14 melanoma
[33] = tested on: SF-268 CNS
[34] = tested on: CCRF-CEM leukemia
[35] = tested on: COLO 205 colon
[36] = tested on: TK-10 renal
[37] = tested on: SK-OV-3 ovarian
[38] = tested on: SW-620 colon
[39] = tested on: LOX IMVI melanoma
[40] = tested on: CAKI-1 renal
[41] = tested on: NCI-H460 lung
[42] = tested on: RXF 393 renal
[43] = tested on: DMS 114 small cell lung
[44] = tested on: OVCAR-8 ovarian
[45] = tested on: A549 NSCLC
[46] = tested on: EKVX NSCLC
[47] = tested on: DMS 273 small cell lung
[48] = tested on: SNB-78 CNS
[49] = tested on: SN12C renal
[50] = tested on: SR leukemia
[51] = tested on: DLD-1 colon
[52] = tested on: ACHN renal
[53] = tested on: HCT-116 colon
[54] = tested on: SK-MEL-5 melanoma
[55] = tested on: HOP-92 NSCLC
[56] = tested on: HOP-18 NSCLC
[57] = tested on: A498 renal
[58] = tested on: XF 498 CNS
[59] = tested on: HS 578T breast
[60] = tested on: PC-3 prostate
[61] = tested on: BT-549 breast
[62] = tested on: DU-145 prostate
[63] = tested on: MCF7 breast
[64] = tested on: NCI/ADR-RES ovarian
[65] = tested on: MDA-N
[66] = tested on: T-47D breast
[67] = tested on: MDA-MB-231 breast
[68] = tested on: MDA-MB-435

## C[C@H]1NC(=O)C2CCCCN2C(=O)CN(C)C(=O)CNC(=O)C2CCCCN2C(=O)[C@@H](NC(=O)c2nc3ccccc3cc2O)[C@@H](C)NC(=O)C2CCCCN2C(=O)CN(C)C(=O)CNC(=O)[C@@H]2CCCCN2C(=O)C1NC(=O)c1nc2ccccc2cc1O (stereo partly specified)
[1]
  TGI: 31.8 µM
[2]
  TGI: 0.698 µM
[3]
  TGI: 0.465 µM
[4]
  TGI: 5.48 µM
[5]
  TGI: > 100 µM
[6]
  TGI: > 100 µM
[7]
  TGI: 0.56 µM
[8]
  TGI: 0.537 µM
[9]
  TGI: 2.11 µM
[10]
  TGI: 0.646 µM
[11]
  TGI: > 100 µM
[12]
  TGI: 10.4 µM
[13]
  TGI: 7.03 µM
[14]
  TGI: 0.984 µM
[15]
  TGI: 4.72 µM
[16]
  TGI: 0.388 µM
[17]
  TGI: 4.8 µM
[18]
  TGI: 660 nM
[19]
  TGI: 0.69 µM
[20]
  TGI: 7.55 µM
[21]
  TGI: 0.764 µM
[22]
  TGI: 0.39 µM
[23]
  TGI: 0.383 µM
[24]
  TGI: 18.7 µM
[25]
  TGI: 0.479 µM
[26]
  TGI: 0.23 µM
[27]
  TGI: 0.494 µM
[28]
  TGI: 0.773 µM
[29]
  TGI: 0.105 µM
[30]
  TGI: 1.1 µM
[31]
  TGI: 36.6 µM
[32]
  TGI: 1.27 µM
[33]
  TGI: 0.934 µM
[34]
  TGI: 5.16 µM
[35]
  TGI: 0.641 µM
[36]
  TGI: > 100 µM
[37]
  TGI: > 100 µM
[38]
  TGI: 12.3 µM
[39]
  TGI: > 100 µM
[40]
  TGI: 0.768 µM
[41]
  TGI: > 100 µM
[42]
  TGI: 0.199 µM
[43]
  TGI: 0.703 µM
[44]
  TGI: > 100 µM
[45]
  TGI: > 100 µM
[46]
  TGI: 23.2 µM
[47]
  TGI: 1070 nM
[48]
  TGI: 11.5 µM
[49]
  TGI: > 100 µM

## O=C(NC(=O)c1cn(CCNCCO)c(=O)[nH]c1=O)OCc1ccccc1
[1]
  TGI: > 100 µM
[2]
  TGI: > 100 µM
[3]
  TGI: > 100 µM
[50]
  TGI: > 100 µM
[4]
  TGI: > 100 µM
[5]
  TGI: > 100 µM
[6]
  TGI: > 100 µM
[7]
  TGI: > 100 µM
[10]
  TGI: > 100 µM
[11]
  TGI: > 100 µM
[13]
  TGI: > 100 µM
[15]
  TGI: > 100 µM
[16]
  TGI: > 100 µM
[17]
  TGI: > 100 µM
[18]
  TGI: > 100000 nM
[51]
  TGI: > 100 µM
[52]
  TGI: > 100 µM
[19]
  TGI: > 100 µM
[20]
  TGI: > 100 µM
[21]
  TGI: > 100 µM
[22]
  TGI: > 100 µM
[23]
  TGI: > 100 µM
[24]
  TGI: > 100 µM
[27]
  TGI: > 100 µM
[28]
  TGI: > 100 µM
[53]
  TGI: > 100 µM
[29]
  TGI: > 100 µM
[30]
  TGI: > 100 µM
[31]
  TGI: > 100 µM
[32]
  TGI: > 100 µM
[33]
  TGI: > 100 µM
[34]
  TGI: > 100 µM
[35]
  TGI: > 100 µM
[36]
  TGI: > 100 µM
[37]
  TGI: > 100 µM
[38]
  TGI: > 100 µM
[39]
  TGI: > 100 µM
[54]
  TGI: > 100 µM
[40]
  TGI: > 100 µM
[41]
  TGI: > 100 µM
[42]
  TGI: > 100 µM
[43]
  TGI: > 100 µM
[44]
  TGI: > 100 µM
[55]
  TGI: > 100 µM
[45]
  TGI: > 100 µM
[46]
  TGI: > 100 µM
[48]
  TGI: > 100 µM
[49]
  TGI: > 100 µM

## CC[C@@]12N=C(N(C)C)C[C@]1(O)ON=C2C
[1]
  TGI: > 100 µM
[2]
  TGI: > 100 µM
[3]
  TGI: > 100 µM
[50]
  TGI: > 100 µM
[4]
  TGI: > 100 µM
[5]
  TGI: > 100 µM
[6]
  TGI: > 100 µM
[7]
  TGI: > 100 µM
[9]
  TGI: > 100 µM
[10]
  TGI: > 100 µM
[11]
  TGI: > 100 µM
[12]
  TGI: > 100 µM
[13]
  TGI: > 100 µM
[56]
  TGI: > 100 µM
[14]
  TGI: > 100 µM
[15]
  TGI: > 100 µM
[16]
  TGI: > 100 µM
[17]
  TGI: > 100 µM
[51]
  TGI: > 100 µM
[52]
  TGI: > 100 µM
[19]
  TGI: > 100 µM
[21]
  TGI: > 100 µM
[22]
  TGI: > 100 µM
[23]
  TGI: > 100 µM
[24]
  TGI: > 100 µM
[25]
  TGI: > 100 µM
[26]
  TGI: > 100 µM
[27]
  TGI: > 100 µM
[28]
  TGI: > 100 µM
[53]
  TGI: > 100 µM
[30]
  TGI: > 100 µM
[57]
  TGI: > 100 µM
[31]
  TGI: > 100 µM
[32]
  TGI: > 100 µM
[33]
  TGI: > 100 µM
[34]
  TGI: > 100 µM
[35]
  TGI: > 100 µM
[36]
  TGI: > 100 µM
[37]
  TGI: > 100 µM
[38]
  TGI: > 100 µM
[58]
  TGI: > 100 µM
[54]
  TGI: > 100 µM
[40]
  TGI: > 100 µM
[41]
  TGI: > 100 µM
[42]
  TGI: > 100 µM
[43]
  TGI: > 100 µM
[44]
  TGI: > 100 µM
[55]
  TGI: > 100 µM
[45]
  TGI: > 100 µM
[46]
  TGI: > 100 µM
[47]
  TGI: > 100000 nM
[49]
  TGI: > 100 µM

## CC1(C)OC(=C(C#N)C#N)C(C#N)=C1/C=C/c1ccncc1
[1]
  TGI: 3.66 µM
[59]
  TGI: 17.9 µM
[2]
  TGI: 3.49 µM
[3]
  TGI: 5.43 µM
[50]
  TGI: 4.74 µM
[60]
  TGI: 4.62 µM
[4]
  TGI: 8.91 µM
[5]
  TGI: 3.79 µM
[6]
  TGI: 4.21 µM
[61]
  TGI: 3.18 µM
[8]
  TGI: 8.27 µM
[9]
  TGI: 6.16 µM
[11]
  TGI: 4.07 µM
[13]
  TGI: 4.42 µM
[14]
  TGI: 8.34 µM
[16]
  TGI: 6.31 µM
[17]
  TGI: 5.28 µM
[62]
  TGI: 6.21 µM
[63]
  TGI: 4.28 µM
[52]
  TGI: 3.39 µM
[19]
  TGI: 5.56 µM
[20]
  TGI: 8.11 µM
[21]
  TGI: 4.21 µM
[22]
  TGI: 8.68 µM
[23]
  TGI: 4.65 µM
[24]
  TGI: 9.14 µM
[25]
  TGI: 19.5 µM
[26]
  TGI: 6.44 µM
[27]
  TGI: 4.12 µM
[64]
  TGI: 4.13 µM
[28]
  TGI: 3.59 µM
[53]
  TGI: 3.46 µM
[29]
  TGI: 3.93 µM
[30]
  TGI: 7.04 µM
[57]
  TGI: 19.4 µM
[31]
  TGI: 3.65 µM
[32]
  TGI: 6.56 µM
[65]
  TGI: 7.27 µM
[33]
  TGI: 6.5 µM
[34]
  TGI: 2.4 µM
[35]
  TGI: 3.27 µM
[66]
  TGI: 6.26 µM
[36]
  TGI: 4.12 µM
[67]
  TGI: 4.36 µM
[37]
  TGI: 16.8 µM
[38]
  TGI: 4.41 µM
[39]
  TGI: 3.51 µM
[54]
  TGI: 14.4 µM
[40]
  TGI: 3.64 µM
[68]
  TGI: 10.6 µM
[41]
  TGI: 22.4 µM
[42]
  TGI: 5.07 µM
[44]
  TGI: 3.29 µM
[55]
  TGI: 5.17 µM
[45]
  TGI: 34.1 µM
[46]
  TGI: 5.46 µM
[49]
  TGI: 5.75 µM
